The record followed here is patent US20250122160A1, “PROTEIN TYROSINE PHOSPHATASE INHIBITORS AND METHODS OF USE THEREOF” (Calico Life Sciences LLC, priority 0001, published 2025).

The target of assay [1] is T1, His tagged PTPN2 (TC45) protein (Homo sapiens, UniProt P17706).
T1 construct: made in house
T1 sequence (P17706 with tags, fused parts or gaps isoform P17706-2): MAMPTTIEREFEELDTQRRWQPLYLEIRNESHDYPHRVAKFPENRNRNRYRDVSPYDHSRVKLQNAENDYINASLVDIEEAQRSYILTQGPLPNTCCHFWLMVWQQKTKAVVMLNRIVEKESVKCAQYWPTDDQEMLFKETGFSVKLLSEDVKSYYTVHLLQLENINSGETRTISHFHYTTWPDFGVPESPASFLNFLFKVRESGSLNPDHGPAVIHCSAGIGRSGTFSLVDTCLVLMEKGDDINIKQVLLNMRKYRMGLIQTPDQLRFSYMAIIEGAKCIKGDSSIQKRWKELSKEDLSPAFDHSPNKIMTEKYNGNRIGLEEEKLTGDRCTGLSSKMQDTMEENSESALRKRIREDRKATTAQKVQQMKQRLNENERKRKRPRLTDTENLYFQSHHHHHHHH
Nature of the assay: Mobility shift assay (MSA) to determine potency of PTPN2 inhibitors. It counts as biochemical. The following applies: 0.5 nM enzyme, 2 μM substrate. An outline of the steps: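 His-tagged human PTPN2 (TC45), 0.5 nM, preincubated 10 min at room temperature with compound (12-point, 1:3 dilutions) in HEPES pH 7.5 buffer with EGTA, EDTA, Tween 20 and DTT. Then 2 μM OG488-labelled phospho-insulin-receptor peptide was added for 10 min and quenched. % conversion was read by mobility shift, and IC50 came from % inhibition.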

Assay [2] concerns the target T2, His tagged full-length PTPN1 protein (Homo sapiens, UniProt P18031).
T2 construct: made in house
T2 sequence (P18031 with tags, fused parts or gaps): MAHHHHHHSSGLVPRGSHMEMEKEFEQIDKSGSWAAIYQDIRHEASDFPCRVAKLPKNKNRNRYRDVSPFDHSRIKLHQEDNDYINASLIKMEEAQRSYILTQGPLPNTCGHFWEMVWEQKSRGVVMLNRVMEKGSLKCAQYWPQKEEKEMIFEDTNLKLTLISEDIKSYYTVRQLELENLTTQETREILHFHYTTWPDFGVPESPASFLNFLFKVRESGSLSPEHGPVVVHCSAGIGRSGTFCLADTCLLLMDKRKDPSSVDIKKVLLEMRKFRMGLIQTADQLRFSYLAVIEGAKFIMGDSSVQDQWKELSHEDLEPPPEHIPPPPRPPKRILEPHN
Kind of assay: Mobility shift assay (MSA) to determine potency of PTPN1 inhibitors. It counts as biochemical. The following applies: 0.5 nM enzyme, 2 μM substrate. An outline of the steps:
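His-tagged full-length human PTPN1 (0.5 nM) preincubated with compound 10 min at room temperature in pH 7.5 HEPES buffer with EGTA, EDTA, Tween 20 and DTT. Dephosphorylation of 2 μM fluorescent phospho-insulin-receptor peptide over 10 min measured by mobility shift. IC50 from % inhibition across a 12-point, 1:3 dilution series.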

Molecules are shown by their SMILES.

For the compound `O=C1CN(c2c(O)cc3c(c2F)C[C@H](NCC2(CF)CC2)CO3)S(=O)(=O)N1` [Compound 381, 5-[(3S)-5-fluoro-3-({[1-(fluoromethyl)cyclopropyl]methyl}amino)-7-hydroxy-3,4-dihydro-2H-1-benzopyran-6-yl]-1λ^6,2,5-thiadiazolidine-1,1,3-trione], the figures for the IC50 in assay [1] and in assay [2] were 10 to 100 nM and above 100 nM, respectively.
The like results for `O=C1CN(c2c(O)cc3c(c2F)C[C@H](NCCC2CCOC2)CO3)S(=O)(=O)N1` (stereo partly drawn) [Compound 382, 5-[(3S)-5-fluoro-7-hydroxy-3-{[2-(oxolan-3-yl)ethyl]amino}-3,4-dihydro-2H-1-benzopyran-6-yl]-1λ^6,2,5-thiadiazolidine-1,1,3-trione] were, in that order, 10 to 100 nM and 10 to 100 nM.
In the same order, the values of `CC(C)(C)OC(=O)N1CCC(CN[C@@H]2COc3cc(O)c(N4CC(=O)NS4(=O)=O)c(F)c3C2)CC1` [Compound 384, tert-butyl 4-({[(3S)-5-fluoro-7-hydroxy-6-(1,1,4-trioxo-1λ^6,2,5-thiadiazolidin-2-yl)-3,4-dihydro-2H-1-benzopyran-3-yl]amino}methyl) piperidine-1-carboxylate] are 10 to 100 nM and 10 to 100 nM.
The like results for `O=C1CN(c2c(O)cc3c(c2F)C[C@H](NCC2CC(c4ccccc4)C2)CO3)S(=O)(=O)N1` (stereo partly drawn) [Compound 385, 5-[(3S)-5-fluoro-7-hydroxy-3-{[(3-phenylcyclobutyl)methyl]amino}-3,4-dihydro-2H-1-benzopyran-6-yl]-1λ^6,2,5-thiadiazolidine-1,1,3-trione] were, in that order, 1 to 10 nM and 10 to 100 nM.
Take `O=C1CN(c2c(O)cc3c(c2F)C[C@H](NCCCc2ccccc2)CO3)S(=O)(=O)N1` [Compound 386, 5-{(3S)-5-fluoro-7-hydroxy-3-[(3-phenylpropyl)amino]-3,4-dihydro-2H-1-benzopyran-6-yl}-1λ^6,2,5-thiadiazolidine-1,1,3-trione]: the IC50 in assay [1] and in assay [2] was 10 to 100 nM in each case.
On to `CC(C)CCCN1CCc2cc(O)c(N3CC(=O)NS3(=O)=O)c(F)c2C1=O` [Compound 387, 5-[8-fluoro-6-hydroxy-2-(4-methylpentyl)-1-oxo-1,2,3,4-tetrahydroisoquinolin-7-yl]-1λ^6,2,5-thiadiazolidine-1,1,3-trione], for which the IC50 in assay [1] and in assay [2] was above 100 nM in each case.
`O=C1CN(c2c(O)cc3c(c2F)C(=O)NCC3)S(=O)(=O)N1` [Compound 388, 5-(8-fluoro-6-hydroxy-1-oxo-1,2,3,4-tetrahydroisoquinolin-7-yl)-1λ^6,2,5-thiadiazolidine-1,1,3-trione]: the half-inhibitory concentration (IC50) in assay [1] and in assay [2] was above 100 nM throughout.
As to `NCC1CCc2cc(O)c(N3CC(=O)NS3(=O)=O)c(F)c2C1` (stereo not shown) [Compound 389, 5-[7-(aminomethyl)-1-fluoro-3-hydroxy-5,6,7,8-tetrahydronaphthalen-2-yl]-1λ^6,2,5-thiadiazolidine-1,1,3-trione], the 50% inhibitory concentration (IC50) in assay [1] and in assay [2] was 10 to 100 nM throughout.
As to `CC(C)CCNCC1CCc2cc(O)c(N3CC(=O)NS3(=O)=O)c(F)c2C1` (stereo not shown) [Compound 390, 5-(1-fluoro-3-hydroxy-7-{[(3-methylbutyl)amino]methyl}-5,6,7,8-tetrahydronaphthalen-2-yl)-1λ^6,2,5-thiadiazolidine-1,1,3-trione], the concentration for half-maximal inhibition (IC50) in assay [1] and in assay [2] was 10 to 100 nM throughout.
Turning to `CC(C)(C)OC(=O)NCC1CCc2cc(O)c(N3CC(=O)NS3(=O)=O)c(F)c2C1` (stereo not shown) [Compound 391, tert-butyl {[8-fluoro-6-hydroxy-7-(1,1,4-trioxo-1λ^6,2,5-thiadiazolidin-2-yl)-1,2,3,4-tetrahydronaphthalen-2-yl]methyl}carbamate], the 50% inhibitory concentration (IC50) in assay [1] and in assay [2] was 10 to 100 nM throughout.
On to `CC(C)CCN[C@H]1Cc2c(cc(O)c(N3CC(=O)NS3(=O)=O)c2F)C[C@H]1O` [Compound 393, 5-{(6R,7S)-1-fluoro-3,6-dihydroxy-7-[(3-methylbutyl)amino]-5,6,7,8-tetrahydronaphthalen-2-yl}-1λ^6,2,5-thiadiazolidine-1,1,3-trione], for which the IC50 in assay [1] and in assay [2] was 1 to 10 nM in each case.
As for `O=C1CN(c2c(O)cc3c(c2F)CC(CNCCCC2CC2)CC3)S(=O)(=O)N1` (stereo not shown) [Compound 394, 5-(7-{[(3-cyclopropylpropyl)amino]methyl}-1-fluoro-3-hydroxy-5,6,7,8-tetrahydronaphthalen-2-yl)-1λ^6,2,5-thiadiazolidine-1,1,3-trione], the half-inhibitory concentration (IC50) in assay [1] and in assay [2] was 10 to 100 nM in each case.
Regarding `C[C@@H]1C[C@@H](NC(=O)OC(C)(C)C)Cc2c1cc(O)c(N1CC(=O)NS1(=O)=O)c2F` [Compound 395, tert-butyl [(2R,4R)-8-fluoro-6-hydroxy-4-methyl-7-(1,1,4-trioxo-1λ^6,2,5-thiadiazolidin-2-yl)-1,2,3,4-tetrahydronaphthalen-2-yl]carbamate], the IC50 in assay [1] and in assay [2] was above 100 nM each time.
Take `CCCCNCC1CCc2cc(O)c(N3CC(=O)NS3(=O)=O)c(F)c2C1` (stereo not shown) [Compound 396, 5-{7-[(butylamino)methyl]-1-fluoro-3-hydroxy-5,6,7,8-tetrahydronaphthalen-2-yl}-1λ^6,2,5-thiadiazolidine-1,1,3-trione]: the IC50 in assay [1] and in assay [2] was 10 to 100 nM each time.
As for `C[C@@H]1C[C@@H](N)Cc2c1cc(O)c(N1CC(=O)NS1(=O)=O)c2F` [Compound 397, 5-[(5R,7R)-7-amino-1-fluoro-3-hydroxy-5-methyl-5,6,7,8-tetrahydronaphthalen-2-yl]-1λ^6,2,5-thiadiazolidine-1,1,3-trione], the IC50 in assay [1] and in assay [2] was above 100 nM each time.
Turning to `C[C@H]1C[C@@H](N)Cc2c1cc(O)c(N1CC(=O)NS1(=O)=O)c2F` [Compound 398, 5-[(5S,7R)-7-amino-1-fluoro-3-hydroxy-5-methyl-5,6,7,8-tetrahydronaphthalen-2-yl]-1λ^6,2,5-thiadiazolidine-1,1,3-trione], the IC50 in assay [1] and in assay [2] was 10 to 100 nM in each case.
In the case of `O=C1CN(c2c(O)cc3c(c2F)CC(CNCC2CC2)CC3)S(=O)(=O)N1` (stereo not shown) [Compound 399, 5-(7-{[(cyclopropylmethyl)amino]methyl}-1-fluoro-3-hydroxy-5,6,7,8-tetrahydronaphthalen-2-yl)-1λ^6,2,5-thiadiazolidine-1,1,3-trione], the IC50 in assay [1] and in assay [2] was 10 to 100 nM in each case.
As for `O=C1CN(c2c(O)cc3c(c2F)CC(CNCC2CCC2)CC3)S(=O)(=O)N1` (stereo not shown) [Compound 400, 5-(7-{[(cyclobutylmethyl)amino]methyl}-1-fluoro-3-hydroxy-5,6,7,8-tetrahydronaphthalen-2-yl)-1λ^6,2,5-thiadiazolidine-1,1,3-trione], the half-maximal inhibitory concentration (IC50) in assay [1] and in assay [2] was 10 to 100 nM each time.
Turning to `N[C@@H]1CCc2cc(O)c(N3CC(=O)NS3(=O)=O)c(F)c2[C@H]1O` [Compound 401, 5-[(7R,8R)-7-amino-1-fluoro-3,8-dihydroxy-5,6,7,8-tetrahydronaphthalen-2-yl]-1λ^6,2,5-thiadiazolidine-1,1,3-trione], the IC50 in assay [1] and in assay [2] was above 100 nM each time.
For `CC(=O)N[C@@H]1CCc2cc(O)c(N3CC(=O)NS3(=O)=O)c(F)c2C1` [Compound 402, N-[(2R)-8-fluoro-6-hydroxy-7-(1,1,4-trioxo-1λ^6,2,5-thiadiazolidin-2-yl)-1,2,3,4-tetrahydronaphthalen-2-yl]acetamide], the IC50 in assay [1] and in assay [2] was above 100 nM in each case.
On to `O=C1CN(c2c(O)cc3c(c2F)CC(CNCCO)CC3)S(=O)(=O)N1` (stereo not shown) [Compound 403, 5-(1-fluoro-3-hydroxy-7-{[(2-hydroxyethyl)amino]methyl}-5,6,7,8-tetrahydronaphthalen-2-yl)-1λ^6,2,5-thiadiazolidine-1,1,3-trione], for which the half-maximal inhibitory concentration (IC50) in assay [1] and in assay [2] was 10 to 100 nM in each case.
In the case of `NC[C@H]1CCc2cc(O)c(N3CC(=O)NS3(=O)=O)c(F)c2C1` [Compound 404, 5-[(7S)-7-(aminomethyl)-1-fluoro-3-hydroxy-5,6,7,8-tetrahydronaphthalen-2-yl]-1λ^6,2,5-thiadiazolidine-1,1,3-trione], the 50% inhibitory concentration (IC50) in assay [1] and in assay [2] was 10 to 100 nM throughout.
As to `NC[C@@H]1CCc2cc(O)c(N3CC(=O)NS3(=O)=O)c(F)c2C1` [Compound 405, 5-[(7R)-7-(aminomethyl)-1-fluoro-3-hydroxy-5,6,7,8-tetrahydronaphthalen-2-yl]-1λ^6,2,5-thiadiazolidine-1,1,3-trione], the IC50 in assay [1] and in assay [2] was 10 to 100 nM throughout.

One may read the IC50 as the midpoint of a concentration-inhibition curve.
